Results taken from ChEMBL document CHEMBL5465560, “Selectivity Literature for EUbOPEN Chemogenomic Library” (2024).
Blank lines part the entries; values can stand above or below the compound they belong to.

What was measured:
[1] = target: TGF-beta receptor type-2 (Homo sapiens) (UniProt P37173); experiment: Selectivity interaction (KinomeScan (DiscoverX)) EUB0000666a TGFBR2; details: at 10 µM
[2] = target: Beta-1 adrenergic receptor (Homo sapiens, UniProt P08588); experiment: Selectivity interaction (Beta 1 adrenergic receptor assay, human recombinant ) EUB0000877a ADRB1
[3] = target: T1, Serine/threonine-protein kinase NLK (Homo sapiens) (UniProt Q9UBE8); experiment: Selectivity interaction (KinomeScan (DiscoverX)) EUB0001868a NLK; details: at 1 µM
T1 sequence (whole entry): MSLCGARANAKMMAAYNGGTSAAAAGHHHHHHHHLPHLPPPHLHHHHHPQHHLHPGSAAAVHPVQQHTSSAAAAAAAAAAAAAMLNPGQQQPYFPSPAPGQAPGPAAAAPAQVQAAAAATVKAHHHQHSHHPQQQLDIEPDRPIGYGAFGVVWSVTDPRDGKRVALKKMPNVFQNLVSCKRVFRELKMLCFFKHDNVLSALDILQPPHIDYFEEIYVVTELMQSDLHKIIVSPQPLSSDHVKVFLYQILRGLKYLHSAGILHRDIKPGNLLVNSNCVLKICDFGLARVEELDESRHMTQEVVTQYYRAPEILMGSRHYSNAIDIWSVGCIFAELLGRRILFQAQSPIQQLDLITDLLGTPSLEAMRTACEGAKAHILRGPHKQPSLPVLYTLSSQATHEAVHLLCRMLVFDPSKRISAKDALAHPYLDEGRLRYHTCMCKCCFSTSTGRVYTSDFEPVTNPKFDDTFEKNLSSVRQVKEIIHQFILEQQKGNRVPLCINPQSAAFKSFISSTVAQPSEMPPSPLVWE

[4] = target: Tyrosine-protein kinase Lyn (Homo sapiens, UniProt P07948); experiment: Selectivity interaction (SelectScreen profiling (Invitrogen)) EUB0000607a LYN; details: at 2 µM
[5] = target: T2, Serine/threonine-protein kinase Sgk1 (Homo sapiens) (UniProt O00141); experiment: Selectivity interaction (Upstate Kinase Profiler service (Millipore)) EUB0000056c SGK1; details: at 1 µM
T2 sequence (whole entry): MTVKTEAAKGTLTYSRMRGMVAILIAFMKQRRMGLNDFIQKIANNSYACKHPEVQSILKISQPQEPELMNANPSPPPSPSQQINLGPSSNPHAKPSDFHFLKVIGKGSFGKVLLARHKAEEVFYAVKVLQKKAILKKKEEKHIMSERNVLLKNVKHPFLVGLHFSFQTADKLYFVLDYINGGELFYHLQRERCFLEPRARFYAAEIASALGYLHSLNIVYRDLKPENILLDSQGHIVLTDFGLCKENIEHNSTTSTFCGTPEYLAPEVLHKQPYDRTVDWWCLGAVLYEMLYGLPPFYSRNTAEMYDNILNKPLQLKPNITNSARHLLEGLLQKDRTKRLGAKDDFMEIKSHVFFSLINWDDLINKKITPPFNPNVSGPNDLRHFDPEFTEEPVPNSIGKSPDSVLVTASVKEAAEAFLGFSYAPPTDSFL

[6] = target: Ribosomal protein S6 kinase beta-1 (Homo sapiens, UniProt P23443); experiment: Selectivity interaction (ActivX KiNativ screen (kinase selectivity in THP-1 cell lysates)) EUB0000639a RPS6KB1; type: subcellular; details: lysate, at 1 µM
Aurora kinase B = Aurora kinase B (Homo sapiens, UniProt Q96GD4); experiment: Selectivity interaction (ProQinase) EUB0000171b AURKB
[7] = target: Angiopoietin-1 receptor (Homo sapiens) (UniProt Q02763); experiment: Selectivity interaction (KinomeScan (DiscoverX)) EUB0000595a TEK; details: at 10 µM
[8] = target: Calcium/calmodulin-dependent protein kinase type II subunit gamma (Homo sapiens) (UniProt Q13555); experiment: Selectivity interaction (Ambit KINOMEscan and KiNATiv profiling in Jurkat cells) EUB0000090b CAMK2G; type: cell-based; details: at 1 µM
[9] = target: T3, Serine/threonine-protein kinase TBK1 (Homo sapiens) (UniProt Q9UHD2); experiment: Selectivity interaction (KinomeScan (DiscoverX)) EUB0000655a TBK1; details: at 10 µM
T3 sequence (whole entry): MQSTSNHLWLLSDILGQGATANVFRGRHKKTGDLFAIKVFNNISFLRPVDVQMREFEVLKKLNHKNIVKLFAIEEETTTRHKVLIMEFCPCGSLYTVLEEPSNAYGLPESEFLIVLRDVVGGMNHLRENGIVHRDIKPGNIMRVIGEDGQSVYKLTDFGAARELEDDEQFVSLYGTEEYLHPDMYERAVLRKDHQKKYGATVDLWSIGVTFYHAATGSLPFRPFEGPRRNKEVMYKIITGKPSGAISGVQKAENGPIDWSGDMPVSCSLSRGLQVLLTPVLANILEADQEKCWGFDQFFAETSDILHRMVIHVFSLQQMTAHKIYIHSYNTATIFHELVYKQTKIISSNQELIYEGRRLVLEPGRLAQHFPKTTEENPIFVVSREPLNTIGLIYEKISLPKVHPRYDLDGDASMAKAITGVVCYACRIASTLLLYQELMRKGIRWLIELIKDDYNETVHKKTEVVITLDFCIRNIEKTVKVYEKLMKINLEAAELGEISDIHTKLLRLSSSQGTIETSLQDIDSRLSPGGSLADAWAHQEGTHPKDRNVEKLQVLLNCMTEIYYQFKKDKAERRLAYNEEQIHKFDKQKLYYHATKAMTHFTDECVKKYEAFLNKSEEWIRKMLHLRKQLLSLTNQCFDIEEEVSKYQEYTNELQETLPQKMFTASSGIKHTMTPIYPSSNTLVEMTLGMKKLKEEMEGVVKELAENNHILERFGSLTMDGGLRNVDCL

[10] = target: BDNF/NT-3 growth factors receptor (Homo sapiens) (UniProt Q16620); experiment: Selectivity interaction (KinomeScan (DiscoverX)) EUB0000618a NTRK2; details: at 10 µM
BDNF/NT-3 growth factors receptor (Homo sapiens), sequence (Q16620 32-822 limits assumed): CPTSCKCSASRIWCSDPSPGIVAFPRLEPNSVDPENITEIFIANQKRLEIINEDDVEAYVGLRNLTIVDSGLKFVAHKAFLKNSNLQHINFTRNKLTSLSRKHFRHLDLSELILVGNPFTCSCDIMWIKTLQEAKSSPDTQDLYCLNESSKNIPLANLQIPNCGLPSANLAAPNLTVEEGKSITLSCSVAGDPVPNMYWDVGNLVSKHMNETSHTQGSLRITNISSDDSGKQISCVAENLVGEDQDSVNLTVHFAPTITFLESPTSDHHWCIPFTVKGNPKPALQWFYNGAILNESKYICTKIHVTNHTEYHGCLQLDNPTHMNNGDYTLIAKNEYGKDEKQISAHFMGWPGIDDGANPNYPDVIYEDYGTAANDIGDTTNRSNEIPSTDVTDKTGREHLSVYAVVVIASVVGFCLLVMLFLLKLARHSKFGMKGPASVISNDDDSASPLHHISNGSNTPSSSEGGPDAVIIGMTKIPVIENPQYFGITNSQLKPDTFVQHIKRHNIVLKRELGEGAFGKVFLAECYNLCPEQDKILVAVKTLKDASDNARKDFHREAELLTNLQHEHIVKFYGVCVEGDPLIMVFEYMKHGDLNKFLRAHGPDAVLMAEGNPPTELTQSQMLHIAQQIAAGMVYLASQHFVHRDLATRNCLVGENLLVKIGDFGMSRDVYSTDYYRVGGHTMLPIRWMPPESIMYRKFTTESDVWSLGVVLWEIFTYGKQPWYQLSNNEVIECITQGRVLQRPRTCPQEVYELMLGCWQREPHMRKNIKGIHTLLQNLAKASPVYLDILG

Aurora kinase B, sequence (Q96GD4 whole entry): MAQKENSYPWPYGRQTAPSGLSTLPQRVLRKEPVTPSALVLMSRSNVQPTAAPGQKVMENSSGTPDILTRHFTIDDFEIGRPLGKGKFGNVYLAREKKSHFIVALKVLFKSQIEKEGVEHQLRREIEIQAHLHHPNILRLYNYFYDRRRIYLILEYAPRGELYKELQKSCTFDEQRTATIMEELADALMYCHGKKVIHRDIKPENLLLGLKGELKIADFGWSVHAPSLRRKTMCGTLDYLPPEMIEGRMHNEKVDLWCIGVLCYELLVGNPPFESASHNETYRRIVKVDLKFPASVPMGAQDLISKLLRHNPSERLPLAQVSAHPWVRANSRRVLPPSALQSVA
Tyrosine-protein kinase Lyn, sequence (P07948 2-512 limits assumed): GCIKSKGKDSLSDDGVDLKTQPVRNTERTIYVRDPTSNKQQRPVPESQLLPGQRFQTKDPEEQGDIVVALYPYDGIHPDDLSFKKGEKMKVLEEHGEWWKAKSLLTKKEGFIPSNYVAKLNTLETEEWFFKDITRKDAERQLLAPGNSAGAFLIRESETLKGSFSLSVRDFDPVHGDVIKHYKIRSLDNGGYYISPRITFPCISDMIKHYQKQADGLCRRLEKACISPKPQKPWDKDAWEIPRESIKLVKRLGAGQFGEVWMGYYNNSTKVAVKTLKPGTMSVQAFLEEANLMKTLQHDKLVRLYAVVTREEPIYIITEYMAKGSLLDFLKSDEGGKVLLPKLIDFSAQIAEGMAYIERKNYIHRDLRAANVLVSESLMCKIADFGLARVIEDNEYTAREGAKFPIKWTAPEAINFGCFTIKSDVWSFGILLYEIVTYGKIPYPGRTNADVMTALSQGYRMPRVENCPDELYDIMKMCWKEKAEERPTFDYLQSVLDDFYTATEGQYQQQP
TGF-beta receptor type-2 (Homo sapiens), sequence (P37173 whole entry): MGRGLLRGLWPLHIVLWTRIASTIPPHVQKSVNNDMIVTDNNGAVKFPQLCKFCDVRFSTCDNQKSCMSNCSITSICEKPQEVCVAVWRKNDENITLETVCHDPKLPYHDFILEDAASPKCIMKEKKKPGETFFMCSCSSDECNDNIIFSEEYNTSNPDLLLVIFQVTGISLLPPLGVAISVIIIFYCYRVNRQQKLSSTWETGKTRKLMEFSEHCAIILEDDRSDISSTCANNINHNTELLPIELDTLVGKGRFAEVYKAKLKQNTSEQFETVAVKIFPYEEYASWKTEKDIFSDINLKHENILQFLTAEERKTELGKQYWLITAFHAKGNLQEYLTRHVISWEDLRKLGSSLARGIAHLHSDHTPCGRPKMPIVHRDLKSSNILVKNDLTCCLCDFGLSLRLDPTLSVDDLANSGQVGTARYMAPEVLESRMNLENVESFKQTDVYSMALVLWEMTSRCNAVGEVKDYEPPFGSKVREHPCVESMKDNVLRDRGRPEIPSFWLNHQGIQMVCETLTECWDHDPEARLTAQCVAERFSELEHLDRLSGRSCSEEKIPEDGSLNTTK
Calcium/calmodulin-dependent protein kinase type II subunit gamma (Homo sapiens), sequence (Q13555 whole entry): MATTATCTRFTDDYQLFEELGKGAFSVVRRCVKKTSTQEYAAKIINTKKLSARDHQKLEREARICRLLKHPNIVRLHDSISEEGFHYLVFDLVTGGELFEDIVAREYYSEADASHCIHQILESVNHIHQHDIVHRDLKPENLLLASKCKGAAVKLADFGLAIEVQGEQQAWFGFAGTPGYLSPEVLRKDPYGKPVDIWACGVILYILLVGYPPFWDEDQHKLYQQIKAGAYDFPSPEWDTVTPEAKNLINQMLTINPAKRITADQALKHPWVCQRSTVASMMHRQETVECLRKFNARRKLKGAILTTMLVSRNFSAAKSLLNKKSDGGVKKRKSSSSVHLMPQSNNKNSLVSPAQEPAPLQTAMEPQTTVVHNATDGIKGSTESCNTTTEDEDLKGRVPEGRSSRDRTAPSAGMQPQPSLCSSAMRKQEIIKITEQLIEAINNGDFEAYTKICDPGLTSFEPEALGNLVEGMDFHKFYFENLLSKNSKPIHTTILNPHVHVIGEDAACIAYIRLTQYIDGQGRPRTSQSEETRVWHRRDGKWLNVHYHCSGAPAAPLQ
Ribosomal protein S6 kinase beta-1, sequence (P23443 whole entry, looked up): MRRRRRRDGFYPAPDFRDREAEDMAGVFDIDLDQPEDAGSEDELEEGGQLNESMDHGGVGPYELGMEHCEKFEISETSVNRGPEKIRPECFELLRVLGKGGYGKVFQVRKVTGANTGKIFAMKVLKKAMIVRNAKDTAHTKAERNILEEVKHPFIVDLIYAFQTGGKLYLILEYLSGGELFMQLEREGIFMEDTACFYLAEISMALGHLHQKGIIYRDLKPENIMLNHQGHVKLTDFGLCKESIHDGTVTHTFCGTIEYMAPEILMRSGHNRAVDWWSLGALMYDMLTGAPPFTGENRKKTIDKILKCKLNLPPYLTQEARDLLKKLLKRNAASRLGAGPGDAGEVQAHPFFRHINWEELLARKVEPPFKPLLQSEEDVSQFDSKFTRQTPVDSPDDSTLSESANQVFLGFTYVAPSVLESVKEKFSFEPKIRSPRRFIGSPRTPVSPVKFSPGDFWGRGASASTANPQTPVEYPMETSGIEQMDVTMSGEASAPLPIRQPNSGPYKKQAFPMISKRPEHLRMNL
Beta-1 adrenergic receptor, sequence (P08588 whole entry): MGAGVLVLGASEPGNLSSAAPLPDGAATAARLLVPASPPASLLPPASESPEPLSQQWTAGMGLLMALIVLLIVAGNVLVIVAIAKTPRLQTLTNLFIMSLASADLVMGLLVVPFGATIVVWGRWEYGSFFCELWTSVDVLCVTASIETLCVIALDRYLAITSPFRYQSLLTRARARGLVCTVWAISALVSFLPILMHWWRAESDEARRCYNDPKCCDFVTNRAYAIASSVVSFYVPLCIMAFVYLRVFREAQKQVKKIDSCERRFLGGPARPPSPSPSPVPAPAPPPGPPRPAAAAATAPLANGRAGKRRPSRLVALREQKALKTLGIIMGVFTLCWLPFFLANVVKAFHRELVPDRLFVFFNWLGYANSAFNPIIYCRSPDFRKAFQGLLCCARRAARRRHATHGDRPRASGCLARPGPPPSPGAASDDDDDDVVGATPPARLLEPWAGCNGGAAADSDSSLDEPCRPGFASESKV
Angiopoietin-1 receptor (Homo sapiens), sequence (Q02763 whole entry): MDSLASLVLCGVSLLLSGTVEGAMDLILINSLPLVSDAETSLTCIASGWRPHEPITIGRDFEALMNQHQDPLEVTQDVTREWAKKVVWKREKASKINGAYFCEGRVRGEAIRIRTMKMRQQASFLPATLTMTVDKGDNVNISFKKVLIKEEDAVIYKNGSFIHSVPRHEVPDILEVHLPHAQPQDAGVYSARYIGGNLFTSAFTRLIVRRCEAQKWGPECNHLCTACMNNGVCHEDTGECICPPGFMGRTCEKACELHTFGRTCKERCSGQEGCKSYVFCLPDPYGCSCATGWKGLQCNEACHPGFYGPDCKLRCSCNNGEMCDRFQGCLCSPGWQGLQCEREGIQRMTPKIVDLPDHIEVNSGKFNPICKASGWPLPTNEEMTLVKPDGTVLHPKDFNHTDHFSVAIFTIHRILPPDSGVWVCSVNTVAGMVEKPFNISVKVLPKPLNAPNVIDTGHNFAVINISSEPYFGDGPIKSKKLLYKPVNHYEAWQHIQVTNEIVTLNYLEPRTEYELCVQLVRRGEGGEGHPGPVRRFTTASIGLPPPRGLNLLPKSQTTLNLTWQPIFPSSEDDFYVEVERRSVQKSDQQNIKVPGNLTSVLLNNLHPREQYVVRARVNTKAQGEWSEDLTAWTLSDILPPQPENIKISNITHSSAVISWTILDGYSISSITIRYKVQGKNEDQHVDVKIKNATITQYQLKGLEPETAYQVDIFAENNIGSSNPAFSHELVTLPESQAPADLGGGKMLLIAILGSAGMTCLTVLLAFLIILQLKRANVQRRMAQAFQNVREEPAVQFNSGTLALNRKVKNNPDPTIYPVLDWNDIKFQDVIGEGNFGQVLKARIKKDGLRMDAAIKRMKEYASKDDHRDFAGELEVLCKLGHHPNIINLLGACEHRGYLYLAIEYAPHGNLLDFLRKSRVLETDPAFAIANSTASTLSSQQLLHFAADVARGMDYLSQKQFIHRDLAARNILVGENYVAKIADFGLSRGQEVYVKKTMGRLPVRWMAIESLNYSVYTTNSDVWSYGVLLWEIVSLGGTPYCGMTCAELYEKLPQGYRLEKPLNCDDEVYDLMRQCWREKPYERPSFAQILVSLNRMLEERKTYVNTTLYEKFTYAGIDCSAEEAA

Compound: O=C(NOC[C@H](O)CO)c1ccc(F)c(F)c1Nc1ccc(I)cc1F
% of control [1]: 100%

IC50 [2]: > 30 µM
Compound: CCC(=O)N1CC[C@H](Nc2ncnc3c2CN(c2cnc(OC)c(C(F)(F)F)c2)CC3)C1 [LENIOLISIB]

% of control [3]: 46%
Compound: Cc1cc(-c2ccnc(Nc3cnn(C)c3)n2)ccc1CNC(=O)N1CC(OC(C)C)C1

Compound: CNC(=O)Nc1ccc(-c2nc(N3CC4CCC(C3)O4)c3cnn(C4CCC5(CC4)OCCO5)c3n2)cc1
% of inhibition [4]: 5%

% of inhibition [5]: 4%
Compound: Cc1ccc(-c2ccc3c(ccc4sc5c(c43)NC[C@@H](C)NC5=O)n2)cn1

% of inhibition [6]: -5.5%
Compound: CC[C@@H]1[C@H](F)C(=O)N[C@@H]1COc1nccc2cc(C(N)=O)c(OC)cc12 [ZIMLOVISERTIB]

% of control (Aurora kinase B; at 1 µM): 73%
% of control (Aurora kinase B; at 5 µM): 40%
Compound: C=CC(=O)Nc1cccc(C(=O)Nc2ccc(Nc3cc(-c4[nH]c(SC)nc4C)ccn3)cc2)c1

Compound: COCC(=O)NC/C=C/c1ccc2ncnc(Nc3ccc(Oc4ccc(C)nc4)c(C)c3)c2c1 [CP-724714]
% of control [7]: 100%

Compound: CN(C)C/C=C/C(=O)Nc1ccc(C(=O)N2CCCC(Nc3ncc(Cl)c(-c4c[nH]c5ccccc45)n3)C2)cc1 (configuration not stated)
% of control [8]: 93%

Compound: CN(C)CCOc1ccc(-c2nc(-c3ccncc3)c(-c3ccc4c(c3)CC/C4=N\O)[nH]2)cc1
% of control [9]: 84%

Compound: O[C@H]1CC[C@H](Nc2ncc3nc(Nc4c(F)cc(F)cc4F)n([C@H]4CCOC4)c3n2)CC1
% of control [10]: 79%
